Marks after values point to notes of the source that are not given here.
Tested on: extracted Salmonella DNA
Experiment: DNA interaction Assay 1: treatment added to extracted DNA directly
Assay type: biochemical
Conditions: 1 kg/T; one hour at room temperature; n = 3
Method: Method (Assay 1: Treatment added to extracted DNA directly). One mL of cell suspension (ca. 10^8 cfu/mL in TSBYE) was harvested by centrifugation at 5000 rcf for 10 minutes. The supernatant was discarded and resuspended as detailed in the protocol provided by the supplier. DNA was extracted using the QIAamp DNA Mini kit (Cat #51304, Qiagen). The samples were incubated at 56° C. for two hours and eluted with 200 uL of nuclease-free water. The same eluent was run through the column twice to increase the DNA concentration. Extracted DNA was quantified using Quant-iT dsDNA high-sensitivity assay kit (Q33120; Thermo Fischer Scientific). Extracted DNA was subsequently treated with the different treatment groups with a final concentration of 1 kg/T (prepared in 10 mM PBS). 1.5 uL of treatment solution (prepared at 10 times higher concentration) is added to 13.5 uL of extracted DNA. The solution was mixed well and left to stand at room temperature for one hour. After one hour, the solution was diluted with nuclease-free water 10 times. DNA was subsequently quantified using Quant-iT dsDNA high-sensitivity assay kit (Q33120; Thermo Fischer Scientific). Method (Assay 2: Treatment added to cells followed by extraction). […] Extracted DNA was quantified using Quant-iT dsDNA high-sensitivity assay kit (Q33120; Thermo Fischer Scientific). […]

CCC(=O)OO [Perpropionic acid, perpropionic acid]
DNA concentration, Average ± SD, Assay 1: 42.8 ± 2.9^b ng/uL
